{"source": "patent EP4663198A1", "about": "“COMPOSITION CONTAINING CYCLIC PEPTIDE COMPOUND AND SURFACTANT” (CHUGAI SEIYAKU KABUSHIKI KAISHA, priority 2023, dated 2024)", "conditions": "Caco-2, pH 6.5", "method": "Caco-2 cells were cultured on 96-well Transwell for 3 weeks. […] From the permeation amount, the permeability coefficient (Caco-2 Papp (cm/sec)) was calculated.\nFrom the measured permeation amount, the permeability coefficient was calculated."}
{"molecule": "CCO[C@@H]1C[C@H]2C(=O)NC3(CCCC3)C(=O)N[C@@H](C3CCCC3)C(=O)N(C)[C@H](C(=O)N(C)C)CC(=O)N(C)[C@@H](CC(C)C)C(=O)N[C@@H]([C@@H](C)CC)C(=O)N(C)CC(=O)N(C)[C@H]3C/C=C\\CCN(C3=O)[C@@H](Cc3ccc(C(F)(F)F)cc3)C(=O)N(C)CC(=O)N[C@@H](CCc3cc(F)c(C(F)(F)F)c(F)c3)C(=O)N2C1", "note": "[CP01, (2S,8S,12R,14S,20S,23S,27S,30S,36S,38Z)-20-cyclopentyl-8-[2-[3,5-difluoro-4-(trifluoromethyl)phenyl]ethyl]-12-ethoxy-27-isobutyl-N,N,4,22,26,32,35-heptamethyl-30-[(1S)-1-methylpropyl]-3,6,9,15,18,21,25,28,31,34,42-undecaoxo-2-[(4-(trifluoromethyl)phenyl]methyl]spiro[1,4,7,10,16,19,22,26,29,32,35-undecazatricyclo[34.5.1.0^10,14]dotetraconta-38-en-17,1'-cyclopentane]-23-carboxamide]", "values": [{"measurement": "Papp A→B", "value": 0.0525, "unit": "×10⁻⁶ cm/s"}]}
